Measurements as given in patent publication US4578400A, “Therapeutic composition and method for treatment of cardiovascular diseases” (priority 1982, dated 1986).

What was measured:
[1] = test system: myocardial mitochondria; test: Inhibition of the decrease in respiratory capacity of myocardial mitochondria; type: biochemical, male Wistar rats; conditions: for ATP production rate: normal 515, defective 204, *P < 0.05
Experimental: Inhibition of the decrease in respiratory capacity of myocardial mitochondria
According to the method of Hagiwara (Biochem. Biophys. Acta, 46, 134-142, 1961), mitochondria fractions were prepared from the myocardium isolated from male Wistar rats weighing about 300 g. The respiratory capacity of the mitochondria was measured by polarography with an oxygen electrode (TA-100, Yanagimoto), with sodium glutamate and ADP being successively added to give final concentrations of 50 mM and 4 mM, respectively. Defective mitochondria were prepared by leaviang the mitochondria fractions at 0° C. for 24 hours, and 5--HDA--Na was added to determine its ability to inhibit the decrease in the respiratory capacity of the myocardial mitochondria, which is proportional to the rate of ATP production.

[2] = target: T1, 3-hydroxy-3-methylglutaryl coenzyme A (HMG-Co A) reductase (Rattus norvegicus, UniProt P51639); test: Inhibition of HMG-CoA reductase activity; type: biochemical, rat (liver microsome); conditions: read-out: IC30 (amount necessary for inhibiting the enzymatic activity by 30%)
T1 sequence (P51639 1-887): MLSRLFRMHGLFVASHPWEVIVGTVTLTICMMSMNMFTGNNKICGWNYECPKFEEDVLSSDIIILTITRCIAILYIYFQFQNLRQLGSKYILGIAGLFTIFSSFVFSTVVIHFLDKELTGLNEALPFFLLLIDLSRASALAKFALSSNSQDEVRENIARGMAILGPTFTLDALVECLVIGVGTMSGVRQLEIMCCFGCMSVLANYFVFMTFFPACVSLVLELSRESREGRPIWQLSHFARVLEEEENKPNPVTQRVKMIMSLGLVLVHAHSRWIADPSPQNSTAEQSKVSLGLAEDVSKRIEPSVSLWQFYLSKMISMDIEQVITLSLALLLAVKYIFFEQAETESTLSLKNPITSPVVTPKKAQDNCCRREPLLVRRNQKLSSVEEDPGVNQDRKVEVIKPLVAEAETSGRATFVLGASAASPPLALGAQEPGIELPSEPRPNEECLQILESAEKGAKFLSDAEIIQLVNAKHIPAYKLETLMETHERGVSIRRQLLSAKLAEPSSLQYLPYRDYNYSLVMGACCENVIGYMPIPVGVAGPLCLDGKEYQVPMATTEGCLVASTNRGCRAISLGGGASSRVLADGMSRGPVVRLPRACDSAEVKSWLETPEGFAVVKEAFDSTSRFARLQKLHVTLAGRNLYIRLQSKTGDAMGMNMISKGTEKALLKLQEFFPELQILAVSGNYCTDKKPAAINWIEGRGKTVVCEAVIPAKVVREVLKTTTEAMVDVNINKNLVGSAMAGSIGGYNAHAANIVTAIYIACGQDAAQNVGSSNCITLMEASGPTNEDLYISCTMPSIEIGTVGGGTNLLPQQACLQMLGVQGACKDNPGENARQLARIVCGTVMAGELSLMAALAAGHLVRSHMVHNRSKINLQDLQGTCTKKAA
Source text: Inhibition of the activity of 3-hydroxy-3-methylglutaryl coenzyme A (HMG-Co A) reductase

## CCCCCC(O)CCCC(=O)[O-].[Na+] (stereo not shown)
[1]; defective mitochondria
  decrease in ATP production in defective mitochondria (in words): significantly inhibited
[1]; defective mitochondria + 10^-4 M
  ATP production rate: 265 mM/mg-protein/min
[1]; defective mitochondria + 10^-5 M
  ATP production rate: 220 mM/mg-protein/min
[2]
  IC30: 100 µM
